The text below walks through data of patent US10994015B2, “EGFR proteolysis targeting chimeric molecules and associated methods of use” (Arvinas Operations, Inc., priority 2016, dated 2021).

One assay has as its target EGFR L858R/T790M (Homo sapiens (Human), UniProt P00533, L858R/T790M). Put plainly: TR-FRET assay for ERBB kinases. It counts as biochemical. Particulars: geometric mean if measured more than once. The method, boiled down: (§1)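 Kinase + cmpd preinc 10 min; start with mix of 3 mM ATP / 30 uM fluorescein poly-GluTyr (mix concs); 10 min RT; stop with 5 nM Tb-pY20 Ab / 40 mM EDTA. Buffer 50 mM HEPES pH 7.5, 10 mM MgCl2.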

A further assay addresses EGFR WT (Homo sapiens (Human), UniProt P00533). Nature of the assay: TR-FRET assay for ERBB kinases. It counts as biochemical. The note with it: geometric mean if measured more than once. The method, boiled down:
as §1

The next assay has as its target EGFR L858R/T790M/C797S (Homo sapiens (Human), UniProt P00533, C797S/L858R/T790M). Put plainly: TR-FRET assay for ERBB kinases. It counts as biochemical. Particulars: geometric mean if measured more than once. The method, boiled down:
as §1

A further assay has as its target EGFR Exon20NPG (Homo sapiens (Human), UniProt P00533, INS770NPG). Nature of the assay: TR-FRET assay for ERBB kinases. It counts as biochemical. Particulars: geometric mean if measured more than once. In outline: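 Phosphorylation of fluorescein-labeled poly-GluTyr read as TR-FRET using Tb-pY20 antibody after EDTA stop, with 340 nm excitation. Kinase reaction ran 10 min at room temperature following 10 min compound pre-incubation; substrate mix held 3 mM ATP and 30 µM peptide before addition. Buffer was HEPES pH 7.5.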

Assay [1] deals with EGFR-wt (MDA-MB-231 or MCF7 or A549 or OVCAR8) (Homo sapiens (Human), UniProt P00533). Put plainly: EGFR protein degradation assay (Western blot). Format: cell-based. The note with it: 72 hours, 300 nM to 10 nM. In outline:
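EGFR degradation was assessed by Western blot. Cells expressing the appropriate EGFR were seeded in 6-well plates (300,000 cells per well) and adhered overnight. Media was removed, cells were washed with cold phosphate-buffered saline, scraped into 400 μl Cell Signaling lysis buffer plus protease inhibitor cocktail, and spun once at 10 000 rpm for 10 minutes. After BCA quantification, loading buffer and reducing agent were added. Gels loaded with 10 μg protein ran at 165V for 2 hours, and bands were visualized by chemiluminescence.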

The target in a further assay is EGFR Exon 20 ASV (HeLa*) (Homo sapiens (Human), UniProt P00533, DUP767-769). Put plainly: EGFR protein degradation assay (Western blot). The note with it: 72 hours, 300 nM to 10 nM. Format: cell-based.
Chain of EGFR Exon 20 ASV (HeLa*) (P00533 other isoform, or with tags, fused parts or gaps dup 767-769): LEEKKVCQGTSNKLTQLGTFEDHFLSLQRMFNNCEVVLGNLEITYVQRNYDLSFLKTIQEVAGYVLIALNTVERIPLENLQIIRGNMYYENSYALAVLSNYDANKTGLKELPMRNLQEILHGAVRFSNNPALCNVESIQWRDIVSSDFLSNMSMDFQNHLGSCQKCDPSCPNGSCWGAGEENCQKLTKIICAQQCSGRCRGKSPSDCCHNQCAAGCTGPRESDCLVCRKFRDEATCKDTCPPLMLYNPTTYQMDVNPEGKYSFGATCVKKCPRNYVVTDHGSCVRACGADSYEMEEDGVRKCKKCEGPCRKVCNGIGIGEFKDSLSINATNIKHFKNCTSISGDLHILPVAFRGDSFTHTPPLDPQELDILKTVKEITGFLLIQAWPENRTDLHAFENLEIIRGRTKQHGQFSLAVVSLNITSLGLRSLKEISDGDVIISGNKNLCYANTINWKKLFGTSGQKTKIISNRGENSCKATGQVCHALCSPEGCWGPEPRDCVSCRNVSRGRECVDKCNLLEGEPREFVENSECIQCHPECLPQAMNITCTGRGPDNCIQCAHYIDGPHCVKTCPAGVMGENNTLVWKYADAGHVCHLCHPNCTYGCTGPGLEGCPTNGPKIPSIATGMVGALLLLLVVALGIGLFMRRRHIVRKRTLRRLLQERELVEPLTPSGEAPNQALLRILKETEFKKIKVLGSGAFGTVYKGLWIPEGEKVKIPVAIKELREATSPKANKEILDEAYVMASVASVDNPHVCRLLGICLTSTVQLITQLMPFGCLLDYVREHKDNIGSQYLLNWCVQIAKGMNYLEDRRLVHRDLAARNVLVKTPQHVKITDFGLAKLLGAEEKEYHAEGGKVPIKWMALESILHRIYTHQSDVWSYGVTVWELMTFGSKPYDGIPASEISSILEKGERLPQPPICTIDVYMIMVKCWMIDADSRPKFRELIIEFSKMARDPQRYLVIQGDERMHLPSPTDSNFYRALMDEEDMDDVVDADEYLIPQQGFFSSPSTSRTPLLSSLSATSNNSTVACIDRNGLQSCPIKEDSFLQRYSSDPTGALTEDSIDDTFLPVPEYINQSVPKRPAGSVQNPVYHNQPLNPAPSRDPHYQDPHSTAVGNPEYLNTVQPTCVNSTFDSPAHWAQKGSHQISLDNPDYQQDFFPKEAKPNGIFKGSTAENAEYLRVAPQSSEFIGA
Assay [2] concerns the target EGFR L858R/T790M/C797S triple mutant (H520*) (Homo sapiens (Human), UniProt P00533, C797S/L858R/T790M). Nature of the assay: EGFR protein degradation assay (Western blot). Format: cell-based. The note with it: 72 hours, 300 nM to 10 nM. The method, boiled down: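 EGFR loss in the triple-mutant line measured by immunoblot: clarified lysates normalised by BCA, run on 4-12% Bis-Tris gels, blotted to PVDF, probed with HRP anti-rabbit secondary. Before lysis, cells were dosed from 1, 0.3, 0.1, 0.03 and 0.01 mM DMSO stocks (not final concentrations) after overnight culture at 37° C.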

The target in assay [3] is EGFR L858R/T790M double mutant (H1975) (Homo sapiens (Human), UniProt P00533, L858R/T790M). Put plainly: EGFR protein degradation assay (Western blot). It counts as cell-based. Particulars: 72 hours, 300 nM to 10 nM. In outline:
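EGFR protein levels were measured by immunoblotting. Lysate protein was quantified by BCA, and 10 μg per sample was separated by SDS/PAGE at 165V for 2 hours and transferred to PVDF. Membranes were blocked in TBS-T with 5% milk for 1 hour, probed overnight at 4° C with EGFR and tubulin antibodies, then secondary antibody for 1 hour, and detected by ECL on a Chemidoc.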

Chain of EGFR L858R/T790M/C797S (P00533 25-1210 T790M/C797S/L858R): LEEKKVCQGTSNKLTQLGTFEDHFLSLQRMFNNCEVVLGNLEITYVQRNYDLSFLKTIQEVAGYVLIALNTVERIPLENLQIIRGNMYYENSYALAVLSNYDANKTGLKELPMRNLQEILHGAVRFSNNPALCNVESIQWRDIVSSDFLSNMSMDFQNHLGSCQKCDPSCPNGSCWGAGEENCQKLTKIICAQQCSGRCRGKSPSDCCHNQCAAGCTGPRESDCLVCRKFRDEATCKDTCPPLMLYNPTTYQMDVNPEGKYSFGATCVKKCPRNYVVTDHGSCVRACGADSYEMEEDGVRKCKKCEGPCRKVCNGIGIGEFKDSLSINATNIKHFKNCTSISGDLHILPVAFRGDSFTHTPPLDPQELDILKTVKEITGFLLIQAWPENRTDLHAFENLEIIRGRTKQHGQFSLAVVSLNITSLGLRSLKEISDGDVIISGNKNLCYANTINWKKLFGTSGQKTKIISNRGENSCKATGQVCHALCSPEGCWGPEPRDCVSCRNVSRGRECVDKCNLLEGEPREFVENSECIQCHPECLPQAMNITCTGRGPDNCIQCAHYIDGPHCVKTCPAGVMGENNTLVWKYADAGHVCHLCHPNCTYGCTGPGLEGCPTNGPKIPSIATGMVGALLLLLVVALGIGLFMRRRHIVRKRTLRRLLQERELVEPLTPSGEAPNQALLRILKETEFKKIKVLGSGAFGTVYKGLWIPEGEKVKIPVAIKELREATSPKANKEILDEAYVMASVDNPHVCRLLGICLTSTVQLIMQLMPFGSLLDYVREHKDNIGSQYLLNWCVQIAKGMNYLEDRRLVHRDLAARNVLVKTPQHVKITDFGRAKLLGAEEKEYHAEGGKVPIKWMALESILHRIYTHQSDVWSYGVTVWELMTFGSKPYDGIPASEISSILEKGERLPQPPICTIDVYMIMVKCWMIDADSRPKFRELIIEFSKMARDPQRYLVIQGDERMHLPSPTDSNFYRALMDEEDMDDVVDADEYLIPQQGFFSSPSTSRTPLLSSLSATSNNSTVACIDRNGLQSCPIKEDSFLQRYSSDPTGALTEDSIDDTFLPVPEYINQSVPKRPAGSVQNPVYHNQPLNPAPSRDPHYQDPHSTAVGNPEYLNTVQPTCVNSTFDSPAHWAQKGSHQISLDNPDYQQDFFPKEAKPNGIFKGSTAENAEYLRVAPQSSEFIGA
Chain of EGFR Exon20NPG (P00533 other isoform, or with tags, fused parts or gaps del 1-694/ins NPG behind 770 limits assumed): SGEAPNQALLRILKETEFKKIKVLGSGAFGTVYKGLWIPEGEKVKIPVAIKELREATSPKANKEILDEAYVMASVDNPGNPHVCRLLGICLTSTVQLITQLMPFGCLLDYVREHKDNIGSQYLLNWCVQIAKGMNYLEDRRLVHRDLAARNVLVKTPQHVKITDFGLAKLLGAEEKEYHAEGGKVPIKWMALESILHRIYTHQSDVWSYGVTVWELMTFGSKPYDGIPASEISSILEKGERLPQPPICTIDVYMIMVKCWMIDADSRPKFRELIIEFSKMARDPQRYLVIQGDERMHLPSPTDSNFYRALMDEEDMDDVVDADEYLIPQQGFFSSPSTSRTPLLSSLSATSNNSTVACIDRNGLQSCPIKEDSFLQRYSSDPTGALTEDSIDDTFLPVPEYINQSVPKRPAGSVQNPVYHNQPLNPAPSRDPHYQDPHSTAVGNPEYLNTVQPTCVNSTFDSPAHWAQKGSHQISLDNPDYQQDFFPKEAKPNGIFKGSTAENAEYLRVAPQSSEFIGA
Chain of EGFR-wt (MDA-MB-231 or MCF7 or A549 or OVCAR8) (P00533 25-1210): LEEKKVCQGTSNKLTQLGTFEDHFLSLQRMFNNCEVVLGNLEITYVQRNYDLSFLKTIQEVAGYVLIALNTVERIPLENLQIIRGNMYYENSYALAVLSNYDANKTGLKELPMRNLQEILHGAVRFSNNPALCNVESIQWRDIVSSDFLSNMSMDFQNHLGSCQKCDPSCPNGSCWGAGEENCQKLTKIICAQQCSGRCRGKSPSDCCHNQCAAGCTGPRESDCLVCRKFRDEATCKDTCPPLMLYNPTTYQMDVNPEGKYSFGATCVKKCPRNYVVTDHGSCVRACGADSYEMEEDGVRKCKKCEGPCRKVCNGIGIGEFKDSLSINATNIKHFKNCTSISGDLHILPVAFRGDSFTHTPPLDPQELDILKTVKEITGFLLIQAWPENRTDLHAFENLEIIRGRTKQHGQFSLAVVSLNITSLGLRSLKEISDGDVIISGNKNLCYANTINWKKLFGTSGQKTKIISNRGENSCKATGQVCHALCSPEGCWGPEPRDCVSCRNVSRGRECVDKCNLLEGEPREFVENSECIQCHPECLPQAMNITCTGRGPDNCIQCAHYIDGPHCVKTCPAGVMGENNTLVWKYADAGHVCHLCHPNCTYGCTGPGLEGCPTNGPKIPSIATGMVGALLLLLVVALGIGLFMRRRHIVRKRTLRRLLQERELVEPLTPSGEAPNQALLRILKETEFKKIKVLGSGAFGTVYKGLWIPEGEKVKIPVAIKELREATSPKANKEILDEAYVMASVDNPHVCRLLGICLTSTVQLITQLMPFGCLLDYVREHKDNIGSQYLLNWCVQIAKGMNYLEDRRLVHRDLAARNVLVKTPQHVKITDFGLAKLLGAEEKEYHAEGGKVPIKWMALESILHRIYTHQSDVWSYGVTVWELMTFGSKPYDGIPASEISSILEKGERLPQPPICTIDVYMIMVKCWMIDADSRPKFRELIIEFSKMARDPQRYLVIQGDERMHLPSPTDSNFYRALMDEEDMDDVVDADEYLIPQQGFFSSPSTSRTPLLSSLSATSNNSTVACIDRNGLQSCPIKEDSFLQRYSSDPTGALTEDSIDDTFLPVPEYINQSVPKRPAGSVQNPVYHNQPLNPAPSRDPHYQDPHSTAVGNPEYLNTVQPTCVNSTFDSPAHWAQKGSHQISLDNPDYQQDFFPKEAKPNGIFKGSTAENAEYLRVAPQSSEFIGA

On to `Cc1ncsc1-c1ccc(CNC(=O)[C@@H]2C[C@@H](O)CN2C(=O)[C@H](C(C)C)N2Cc3ccccc3C2=O)c(OCCOCCOCCOCCN2CCN(Cc3ccc(-c4cc5c(NCc6ccccc6Cl)ncnc5[nH]4)cc3)CC2)c1` [compound 109], for which the IC50 on EGFR L858R/T790M came out at 6000 nM; on EGFR WT it was 180 nM; at EGFR L858R/T790M/C797S it was 8900 nM; at EGFR Exon20NPG, 580 nM. In addition, the “EGFR protein remaining, EGFR-wt” value in assay [1] is given as “C (>80% EGFR protein remaining after 72 hours of incubation with the test compound at a concentration of 300 nM)”. For the same compound, the “EGFR protein remaining, EGFR Exon 20 ASV” value on EGFR Exon 20 ASV (HeLa*) is “C (>80% EGFR protein remaining after 72 hours of incubation with the test compound at a concentration of 300 nM)”.
For the compound `O=C1CCC(N2C(=O)c3ccc(OCCOCCOCCOCCOCCN4CCN(Cc5ccc(C6Cc7c(NCc8ccccc8Cl)ncnc7N6)cc5)CC4)cc3C2=O)C(=O)N1` (stereo not shown) [compound 104], the IC50 at EGFR L858R/T790M is 12000 nM; on EGFR WT, 590 nM; at EGFR L858R/T790M/C797S, 8200 nM; on EGFR Exon20NPG, 510 nM. Moreover, in assay [1], the “EGFR protein remaining, EGFR-wt” value is listed as “C (>80% EGFR protein remaining after 72 hours of incubation with the test compound at a concentration of 300 nM)”. Further, the “EGFR protein remaining, EGFR Exon 20 ASV” value at EGFR Exon 20 ASV (HeLa*) is “C (>80% EGFR protein remaining after 72 hours of incubation with the test compound at a concentration of 300 nM)”.
For the compound `Cc1ncsc1-c1ccc([C@H](C)NC(=O)[C@H]2C[C@H](O)CN2C(=O)[C@@H](NC(=O)COCCOCCOCCOCCOCCOCC#Cc2cccc3c2C(=O)N([C@@H](C(=O)Nc2nccs2)c2cc(F)ccc2O)C3)C(C)(C)C)cc1` [compound 275], the 50% inhibitory concentration (IC50) on EGFR L858R/T790M came to 880 nM; at EGFR WT, 660 nM; on EGFR L858R/T790M/C797S, 69 nM; at EGFR Exon20NPG it was 9100 nM. In assay [2], the “EGFR protein remaining, EGFR L858R/T790M/C797S triple mutant” value is “B (≤80% and >50% EGFR protein remaining after 72 hours of incubation with the test compound at a concentration between 300 nM and 10 nM)”. In assay [3], the “EGFR protein remaining, EGFR L858R/T790M double mutant” value was “C (>80% EGFR protein remaining after 72 hours of incubation with the test compound at a concentration of 300 nM)”. In assay [1], the “EGFR protein remaining, EGFR-wt” value is on record as “C (>80% EGFR protein remaining after 72 hours of incubation with the test compound at a concentration of 300 nM)”.
Consider `Cc1ncsc1-c1ccc(CNC(=O)[C@@H]2C[C@@H](O)CN2C(=O)[C@H](C(C)C)N2Cc3ccccc3C2=O)c(OCCOCCN2CCN(Cc3ccc(-c4cc5c(NCc6ccccc6Cl)ncnc5[nH]4)cc3)CC2)c1` [compound 107], for which the IC50 was determined as 6700 nM on EGFR L858R/T790M, 140 nM on EGFR WT, 6000 nM at EGFR L858R/T790M/C797S and 600 nM on EGFR Exon20NPG. The “EGFR protein remaining, EGFR-wt” value in assay [1] is reported as “C (>80% EGFR protein remaining after 72 hours of incubation with the test compound at a concentration of 300 nM)”. Besides, at EGFR Exon 20 ASV (HeLa*), the “EGFR protein remaining, EGFR Exon 20 ASV” value is “C (>80% EGFR protein remaining after 72 hours of incubation with the test compound at a concentration of 300 nM)”.
With `O=C1CCC(N2C(=O)c3ccc(OCCOCCOCCN4CCN(Cc5ccc(-c6cc7c(NCc8ccccc8Cl)ncnc7[nH]6)cc5)CC4)cc3C2=O)C(=O)N1` (stereo not shown) [Example 17, 5-(2-(2-(2-(4-(4-(4-((2-chlorobenzyl)amino)-7H-pyrrolo[2,3-d]pyrimidin-6-yl)benzyl)piperazin-1-yl)ethoxy)ethoxy)ethoxy)-2-(2,6-dioxopiperidin-3-yl)isoindoline-1,3-dione], the IC50 was 7200 nM on EGFR L858R/T790M, 220 nM at EGFR WT, 4900 nM on EGFR L858R/T790M/C797S and 190 nM on EGFR Exon20NPG. Besides, in assay [1], the “EGFR protein remaining, EGFR-wt” value is “C (>80% EGFR protein remaining after 72 hours of incubation with the test compound at a concentration of 300 nM)”. Besides, the “EGFR protein remaining, EGFR Exon 20 ASV” value at EGFR Exon 20 ASV (HeLa*) is listed as “C (>80% EGFR protein remaining after 72 hours of incubation with the test compound at a concentration of 300 nM)”.
Consider `O=C1CCC(N2C(=O)c3ccc(OCCOCCOCCOCCOCCOCCN4CCN(Cc5ccc(C6Cc7c(NCc8ccccc8Cl)ncnc7N6)cc5)CC4)cc3C2=O)C(=O)N1` (stereo not shown) [compound 105], for which the IC50 was above 30000 nM at EGFR L858R/T790M, 970 nM at EGFR WT, 24000 nM on EGFR L858R/T790M/C797S and 820 nM on EGFR Exon20NPG. Further, the “EGFR protein remaining, EGFR-wt” value in assay [1] is on record as “C (>80% EGFR protein remaining after 72 hours of incubation with the test compound at a concentration of 300 nM)”. In addition, at EGFR Exon 20 ASV (HeLa*), the “EGFR protein remaining, EGFR Exon 20 ASV” value is listed as “C (>80% EGFR protein remaining after 72 hours of incubation with the test compound at a concentration of 300 nM)”.
Turning to `Cc1ncsc1-c1ccc(CNC(=O)[C@@H]2C[C@@H](O)CN2C(=O)[C@@H](NC(=O)CO[C@H]2C[C@H](Oc3ccc(N4CCN(CCOCc5nc6cnc(Nc7ccnc(-c8cnn(S(=O)(=O)C9CC9)c8)n7)cc6n5C(C)C)CC4)cc3)C2)C(C)(C)C)cc1` [compound 304], the IC50 at EGFR L858R/T790M is 92 nM; on EGFR WT, above 30000 nM; at EGFR L858R/T790M/C797S, 17 nM. In assay [2], the “EGFR protein remaining, EGFR L858R/T790M/C797S triple mutant” value is “A (≤50% EGFR protein remaining after 72 hours of incubation with the test compound at a concentration between 300 nM and 10 nM)”. Also, in assay [1], the “EGFR protein remaining, EGFR-wt” value is listed as “C (>80% EGFR protein remaining after 72 hours of incubation with the test compound at a concentration of 300 nM)”.
Consider `Cc1ncsc1-c1ccc(CNC(=O)[C@@H]2C[C@@H](O)CN2C(=O)[C@H](C(C)C)N2Cc3ccccc3C2=O)c(OCCN2CCN(Cc3ccc(-c4cc5c(NCc6ccccc6Cl)ncnc5[nH]4)cc3)CC2)c1` [Example 106, (2S,4R)—N-(2-(2-(4-(4-(4-((2-chlorobenzyl)amino)-7H-pyrrolo[2,3-d]pyrimidin-6-yl)benzyl)piperazin-1-yl)ethoxy)-4-(4-methylthiazol-5-yl)benzyl)-4-hydroxy-1-((S)-3-methyl-2-(1-oxoisoindolin-2-yl)butanoyl)pyrrolidine-2-carboxamide], for which the half-inhibitory concentration (IC50) at EGFR L858R/T790M stood at 4900 nM; on EGFR WT it was 470 nM; at EGFR L858R/T790M/C797S, 5200 nM; at EGFR Exon20NPG it was 1900 nM. The “EGFR protein remaining, EGFR-wt” value in assay [1] was “C (>80% EGFR protein remaining after 72 hours of incubation with the test compound at a concentration of 300 nM)”. Moreover, the “EGFR protein remaining, EGFR Exon 20 ASV” value at EGFR Exon 20 ASV (HeLa*) is listed as “C (>80% EGFR protein remaining after 72 hours of incubation with the test compound at a concentration of 300 nM)”.
Turning to `Cc1ncsc1-c1ccc(CNC(=O)[C@@H]2C[C@@H](O)CN2C(=O)[C@@H](NC(=O)COCCOCCOCCOc2ccc(-c3cc4c(NCc5ccccc5Cl)ncnc4[nH]3)cc2)C(C)(C)C)cc1` [Example 14, (2S,4R)-1-((S)-2-(tert-butyl)-14-(4-(4-((2-chlorobenzyl)amino)-7H-pyrrolo[2,3-d]pyrimidin-6-yl)phenoxy)-4-oxo-6,9,12-trioxa-3-azatetradecanoyl)-4-hydroxy-N-(4-(4-methylthiazol-5-yl)benzyl)pyrrolidine-2-carboxamide], in assay [1], the “EGFR protein remaining, EGFR-wt” value is given as “C (>80% EGFR protein remaining after 72 hours of incubation with the test compound at a concentration of 300 nM)”. Besides, the “EGFR protein remaining, EGFR Exon 20 ASV” value at EGFR Exon 20 ASV (HeLa*) is on record as “C (>80% EGFR protein remaining after 72 hours of incubation with the test compound at a concentration of 300 nM)”.
Consider `O=C1CCC(N2C(=O)c3ccc(OCCOCCN4CCN(Cc5ccc(-c6cc7c(NCc8ccccc8Cl)ncnc7[nH]6)cc5)CC4)cc3C2=O)C(=O)N1` (stereo not shown) [Example 102, 5-(2-(2-(4-(4-(4-((2-chlorobenzyl)amino)-7H-pyrrolo[2,3-d]pyrimidin-6-yl)benzyl)piperazin-1-yl)ethoxy)ethoxy)-2-(2,6-dioxopiperidin-3-yl)isoindoline-1,3-dione], for which, in assay [1], the “EGFR protein remaining, EGFR-wt” value is given as “C (>80% EGFR protein remaining after 72 hours of incubation with the test compound at a concentration of 300 nM)”. Moreover, the “EGFR protein remaining, EGFR Exon 20 ASV” value at EGFR Exon 20 ASV (HeLa*) is recorded as “C (>80% EGFR protein remaining after 72 hours of incubation with the test compound at a concentration of 300 nM)”.
